The text below walks through data of patent US7265096B2 (XenoPort, Inc., priority 2002, dated 2007).

Series [1] deals with human ENT1, ENT2, CNT1 and CNT3. The following applies: literature (Mackey et al.; Fang et al.); cited from earlier work.
The conditions of series [2]: intravenous infusion for up to 12 hours; cited from earlier work.
Series [3] is described as follows: Pharmacokinetics and intestinal exposure to gemcitabine after oral dosing in mice. Type of series: in vivo. To be noted: male, mouse, blood, po, 20 mg-eq. gemcitabine/kg; read-out: Fpo (oral bioavailability). The method, then:
Blood samples (0.5 mL) were obtained by cardiac puncture from 4 animals at each time point (1, 5, 10, 15, 30, 45 minutes and 1, 2, 4, 6 and 24 hr post-dosing). Samples were immediately transferred to tubes containing 10 μL of tetrahydrouridine (50 μg/mL in 50% methanol/water) to prevent further deamination and aliquots (100 μL) were quenched with a solution of 1% w/w formic acid in acetonitrile (300 μL). Quenched blood samples were stored at −80° C. until analyzed. Following collection of blood samples, the small intestine of each animal was removed, rinsed with saline, scraped to remove the mucosal layer, and the mucosal tissue was transferred to a pre-weighed vial containing 10 μL of tetrahydrouridine (50 μg/mL in 50% methanol/water). Sample vials were snap frozen in dry ice/acetone and stored at −80° C. until analyzed. Mucosal tissue samples were diluted 1:10 in water and 100 μL of the resulting sample was added to 400 μL of methanol.

For another series, the target named is T1, CNT2 (Homo sapiens, UniProt O43868).
T1 sequence (O43868 1-658): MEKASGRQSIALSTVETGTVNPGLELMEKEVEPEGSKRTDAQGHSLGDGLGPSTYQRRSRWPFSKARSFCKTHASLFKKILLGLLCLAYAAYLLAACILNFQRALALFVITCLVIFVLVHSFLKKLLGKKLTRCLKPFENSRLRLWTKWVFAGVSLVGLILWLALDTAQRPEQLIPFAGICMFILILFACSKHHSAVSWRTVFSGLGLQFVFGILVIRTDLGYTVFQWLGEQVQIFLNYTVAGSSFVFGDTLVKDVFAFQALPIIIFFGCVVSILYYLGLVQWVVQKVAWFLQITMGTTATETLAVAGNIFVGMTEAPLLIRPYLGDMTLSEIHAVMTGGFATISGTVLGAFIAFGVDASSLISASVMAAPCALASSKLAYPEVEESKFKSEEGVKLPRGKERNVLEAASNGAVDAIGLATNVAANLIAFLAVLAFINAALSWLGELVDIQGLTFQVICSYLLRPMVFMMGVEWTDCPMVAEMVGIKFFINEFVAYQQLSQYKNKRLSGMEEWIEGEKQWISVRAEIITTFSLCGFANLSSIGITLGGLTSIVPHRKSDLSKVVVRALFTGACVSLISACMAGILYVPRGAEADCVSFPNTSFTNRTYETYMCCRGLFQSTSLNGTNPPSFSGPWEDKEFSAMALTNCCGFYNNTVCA
To be noted: literature (Mackey et al.; Fang et al.); cited from earlier work.

Each structure is given as a SMILES string.

One may read the bioavailability as the share of a dose that reaches the circulation, judged against a reference dose that is usually intravenous. On to `Nc1ccn([C@@H]2O[C@H](CO)[C@@H](O)C2(F)F)c(=O)n1` [gemcitabine, 2′,2′-difluoro-2′-deoxycytidine], for which the “Transport by human ENT1, ENT2, CNT1 and CNT3” value in series [1] was “transported by human ENT1, ENT2, CNT1 and CNT3”. The “Dose reported to be tolerated in patients” value in series [2] is reported as 10 mg/m^2/min. The bioavailability in series [3] amounted to 20%. The “Transport by CNT2” value on CNT2 is reported as “not the purine-selective concentrative transporter CNT2”.
